Results taken from patent US12161136B2, “Screening methods using GPRC6A taste receptors and pet food products and compositions prepared using the same” (MARS, INCORPORATED, priority 2018, dated 2024).

Legend:
cats = experiment: Cat feeding test (2-bottle choice test); format: in vivo; settings: 0.15 mM L-ornithine hydrochloride in water vs plain water; 24 cats; 36 hours testing time
Description: Cats were allowed access to water containing 0.15 mM L-ornithine hydrochloride and to plain water. The methodology used a 2-bottle choice test with 24 cats (the final number of cats for each test can vary due to data being discarded by spillage, etc.). Cats were housed individually during trial periods and had free access to water available between testing periods. The test involved a choice test between the tastant/mixture at a given concentration dissolved in deionized water versus deionized water only or another tastant/mixture. Control was made for positional bias (e.g., A/B exposure 1 and B/A exposure 2) and evaporation loss. The testing time was 36 hours (i.e., 18 hours per day, allowing a two-day crossover). Following two consecutive days of each testing, cats had two consecutive days of rest. Cats were offered a dry diet as a single meal at the start of the test period for one hour, calculated to meet the individual requirements for each cat.

feline GPRC6A = experiment: fGPRC6A calcium assay in HEK-293 T-REx/natClytin cells (FLIPR Tetra, Fluo-4 AM fluorescence); format: cell-based; settings: for Activation of the fGPRC6A receptor (intracellular calcium response): ligand alone, K2.3 clone, doxycycline-induced, Fluo-4 AM read-out
Description: The HEK-293 […] cell line was stably transfected by electroporation. Briefly, 3×10^6 cells detached from 60% confluent flasks were transfected with 10 μg of DNA construct by using the Gene Pulser II electroporator (Biorad) (parameters: 300 Volts, 950 μF). […] Tetra system was used to measure fluorescence or luminescence. HEK293 cells that transiently or stably expressed the […] taste receptor, were exposed to compounds to determine whether the compounds modulated the activity of the […] receptor. In particular, […] cell line was used as recipient cell line and stable transfections were carried out using an inducible expression construct encoding for the feline GPRC6A in combination with the chimeric Ga protein Gaq[…]. Stable pools underwent a first limiting dilution (LD) and the best clones were chosen after stimulation with the reference ligand L-Arg+20 mM Mg^2+, using both a fluorescent and a luminescent read-out. Four selected first LD clones were subjected to a second round of LD; CPA was then performed in order to choose the best performing clones. On the basis of the functional data obtained at FLIPR® Tetra, the final K2.3 clone was chosen for the subsequent optimization steps. Fluorescence (Fluo-4 AM dye) was chosen as best read-out given its higher sensitivity in comparison to luminescence. In particular, cells were seeded at 7,500 cells/well and tested 48 h after seeding (Doxycycline was added at 1 μg/mL 24 h after seeding). Then, medium was removed, and cells were incubated with Fluo-4 AM dye (20 μL/well) for 1 h at 37° C. […]

SMILES	Average difference in intake versus plain water (cats) [g]	Activation of the fGPRC6A receptor (intracellular calcium response) (feline GPRC6A)	Modulation of the response to the tested L-alpha-amino acids (feline GPRC6A; 20 mM Mg2+ together with L-Arginine, L-Ornithine or L-Lysine)
Cl.NCCC[C@H](N)C(=O)O [L-ornithine, L-ornithine hydrochloride]	15.28	–	–
COc1cccc([C@@H](C)NCCCc2ccccc2Cl)c1 [NPS R-568]	–	not functional	–
[Mg+2] [magnesium ion]	–	not activated	positive allosteric modulator
